The values below come from US12391701B2, “Chromene-based compounds, methods and uses thereof” (University of Minho, priority 2019, dated 2025).

What all share (assay type): cell-based
One experiment has as its system TNBC cell line Hs578t. The experiment can be described thus: Cell viability assay (MTS), Hs578t. The following applies: Homo sapiens, Hs-578T; 72 h incubation. The text has this:
In an embodiment, for a comparison study, monomers and respective dimers were selected and further evaluated in Hs578t and MDA-MB-468 breast cell lines. […] These cell lines correspond to the basal-like subtype of breast cancer, included in the known triple negative subtype, since they are negative for Estrogen receptor (ER), progesterone receptor (PR) and Human epidermal growth factor receptor 2 (HER2) molecular markers. The clinical behaviour of these breast cancer subtype is very aggressive and there is still no specific molecular therapy available.
In an embodiment, three human breast cancer cell lines Hs578T, MDA-MB-468 and MCF-7, and a normal breast cell line MCF-10A, were obtained from ATCC (American Type Culture Collection). The cancer cell lines were cultured in Dulbecco's modified Eagle medium, 4.5 g/l glucose (DMEM, Gibco) supplemented with 10% heating inactivated Fetal Bovine Serum (FBS, Gibco) and 1% antibiotic solution (Penicillin-Streptomycin, Gibco). The normal cell line was cultured in Dulbecco's Modified Eagle Medium: Nutrient Mixture F-12 (DMEM/F12, Gibco) supplemented with 5% heating inactivated FBS (Gibco), 1% antibiotic solution (Penicillin-Streptomycin, Gibco), 1% steroid hormone (Hydrocortisone, Sigma-Aldrich), 0.1% peptide hormone (Insulin, Sigma-Aldrich) and 0.01% protein complex (Cholera Toxin, Gibco). Two distinct human acute myeloid leukemia (AML) cell lines, HL-60 (FAB M2) and KG-1 (erythroleukemia-FAB M6), and one human lymphoblastic leukemia (ALL) cell line, Jurkat (T cell type), were also used. These three cell lines were obtained from German Collection of Microorganisms and Cell cultures (DMSZ®, Deutsche Sammlung von Mikroorganismen and Zellkulturen in German). Cells were cultured in RPMI 1640 medium (Biochrom®-Merck Millipore) supplemented with 10% heating inactivated FBS (Biochrom®-Merck Millipore) and 1% antibiotic/antimitotic mixture (Invitrogen®). Three human glioblastoma (GBM) cell line models, two established and commercially available cell lines (U87MG and GAMG, kind gift from Rui M. Reis) and one primary GBM culture (GLIB) were also used. GBM cells were cultures in DMEM (Biochrom-Merck Millipore), all supplemented with 10% FBS. The Renal cell carcinoma cell lines A498, 786-O, Caki-2 and HK2 were obtained from ATCC. The cancer cell line A498 was cultured in MEM medium (Biochrom®-Merck Millipore), 786-O was cultured in RPMI 1640 medium (Biochrom®-Merck Millipore), Caki-2 was cultured in Mc Coys medium (Biochrom®-Merck Millipore) and HK2 was cultured in RPMI 1640 medium (Biochrom®-Merck Millipore). All the media were supplemented with 10% heat inactivated FBS (Biochrom®-Merck Millipore) and 1% antibiotic/antimitotic mixture (Invitrogen®). All cells were grown in a humidified incubator at 37° C. and 5% CO2. For all assays, DMSO (Dimethyl Sulfoxide, Sigma-Aldrich) controls were used.
In an embodiment, cell viability assays were performed. MCF-7, Hs578T and MCF-10A cells were plated in triplicate in 96-multiwell culture plates, at 3000 cells […], or 5000 cells […] for MDA-MB-468 (100 μL/well). The cells were then allowed to adhere in complete medium, over a period of 18-20 hours. Cells were subsequently treated with 7 different concentrations (from 0.1 to 40 μM or 5 to 60 μM) of compounds or control in fresh medium. HL-60, KG-1 and Jurkat cell lines were plated in 96-multiwell culture plates at 50.000 cells/100 μL per well and treated with different concentrations (from 0.001 to 2 μM) of the compounds described (or control). Cells were plated, in triplicate, at an initial density of 2000 cells/well for GAMG, 4000 cells/well for GL18 and 6000 cells/well for U87MG, in 96-well plates, and allowed to adhere for 18-20 hours. Cells were then treated with different concentrations of the compounds (0.005 to 100 μM) or with control. […]

Experiment [1] has as its system cediranib-resistant Caki-2 cell line. The experiment can be described thus: Cell viability, cediranib-resistant Caki-2. Conditions: for IC50: Homo sapiens, CAKI-2. The protocol:
(§1) In an embodiment, the antiproliferative activity of compounds MC421, MC409, MC408, MC350, MC416, MC410, MC411, MC415 and MC413 was further determined against drug-resistant renal carcinoma cell lines.
(§2) In an embodiment, cell viability assays were performed. MCF-7, Hs578T and MCF-10A cells were plated in triplicate in 96-multiwell culture plates, at 3000 cells per mL, or 5000 cells per mL for MDA-MB-468 (100 μL/well). The cells were then allowed to adhere in complete medium, over a period of 18-20 hours. Cells were subsequently treated with 7 different concentrations (from 0.1 to 40 μM or 5 to 60 μM) of compounds or control in fresh medium. HL-60, KG-1 and Jurkat cell lines were plated in 96-multiwell culture plates at 50.000 cells/100 μL per well and treated with different concentrations (from 0.001 to 2 μM) of the compounds described (or control). Cells were plated, in triplicate, at an initial density of 2000 cells/well for GAMG, 4000 cells/well for GL18 and 6000 cells/well for U87MG, in 96-well plates, and allowed to adhere for 18-20 hours. Cells were then treated with different concentrations of the compounds (0.005 to 100 μM) or with control. A498 and 786-O cells were plated at 2000 cells per mL, Caki-2 cells were plated at 3000 cells per mL and HK2 cells were plated at 2000 cells per mL in triplicate, in 96-multiwell culture plates (100 μL/well), and allowed to adhere over a period of 18-20 hours in complete medium. The cells were then treated with 7 different concentrations (from 0.1 to 40 μM or 5 to 60 μM) of compounds or control in fresh medium. After 72 h of incubation, the MTS (Promega) reduction assay was performed according to manufacturer's instructions to indirectly assess the percentage of viable cells through metabolic cell viability. After 1-2 hours of incubation with MTS in a humidified atmosphere at 37° C. and 5% CO2, absorbance was measured at 490 nm. For RCC cell lines, sulforhodamine B assay was used according to manufacturer's instructions. The data was log-transformed and the concentration of each compound that decreased the number of viable cells to 50% (IC50) relative to control was calculated using the GraphPad Prism 6 software.

Experiment [2] has as its system rapamycin-resistant A498 cell line. Nature of the experiment: Cell viability, rapamycin-resistant A498. Conditions: for IC50: Homo sapiens, A498. How it is done:
as §1, §2

Take `COc1ccccc1-c1nc2c([nH]1)Cc1cccc(OC)c1O2` [MC411, 5-methoxy-2-(2-methoxyphenyl)-3,9-dihydrochromeno[2,3-]imidazoles]: 8610 nM corresponded to half-maximal inhibition in the experiment with TNBC cell line Hs578t (IC50). Moreover, in experiment [1], the “Selectivity Index (vs HK2) Caki-2 Resistant” value is given as 1.92 and the IC50 was determined as 1.62 µM.

For the compound `COc1cccc2c1Oc1nc(-c3cc(F)cc(F)c3O)[nH]c1C2` [MC410, 2,4-difluoro-6-(5-methoxy-3,9-dihydrochromeno[2,3-d]imidazol-2-yl)phenol], the IC50 in the experiment with TNBC cell line Hs578t was more than 20000 nM; in experiment [1] it was 6.41 µM. In experiment [1], the “Selectivity Index (vs HK2) Caki-2 Resistant” value came out at 2.60.

`COc1cccc2c1Oc1nc(-c3ccc(F)cc3)[nH]c1C2C1c2cccc(OC)c2Oc2nc(-c3ccc(F)cc3)[nH]c21` (stereo not drawn) [MC406, 2,2′-bis(4-fluorophenyl)-5,5′-dimethoxy-1,1,9,9′-tetrahydro-9,9′-bichromeno[2,3-]imidazoles] yielded an IC50 in the experiment with TNBC cell line Hs578t of 53 nM.

In the case of `COc1cccc2c1Oc1nc(-c3ccc(F)cc3)[nH]c1C2` [MC409, 2-(4-fluorophenyl)-5-methoxy-3,9-dihydrochromeno[2,3-d]imidazoles], in experiment [2], the “Selectivity Index (vs HK2) A498 Resistant” value is recorded as 5.84 and the IC50 was determined as 0.51 µM. In the experiment with TNBC cell line Hs578t, the IC50 was 270 nM. Also, in experiment [1], the “Selectivity Index (vs HK2) Caki-2 Resistant” value was found to be 9.56 and inhibition was half-maximal at 0.33 µM (IC50).

In the case of `CCOc1ccc(-c2nc3c([nH]2)Cc2cccc(OC)c2O3)cc1` [MC415, 2-(4-ethoxyphenyl)-5-methoxy-3,9-dihydrochromeno[2,3-d]imidazoles], the “Selectivity Index (vs HK2) A498 Resistant” value in experiment [2] came out at 8.03. In addition, the IC50 in experiment [2] amounted to 0.58 µM; in the experiment on TNBC cell line Hs578t, 580 nM; in experiment [1], 0.08 µM. Besides, the “Selectivity Index (vs HK2) Caki-2 Resistant” value in experiment [1] worked out at 64.5.

Turning to `COc1ccc(-c2nc3c([nH]2)Cc2cccc(OC)c2O3)c(Br)c1O` [MC416, 2-bromo-6-methoxy-3-(5-methoxy-3,9-dihydrochromeno[2,3-]imidazol-2-yl)phenol], half-maximal inhibition in the experiment with TNBC cell line Hs578t (IC50) required 3160 nM. Further, in experiment [1], the “Selectivity Index (vs HK2) Caki-2 Resistant” value was found to be 1.97 and the IC50 was 1.59 µM.

For `COc1cccc2c1Oc1nc(-c3ccc(O)cc3)[nH]c1C2` [MC413, 4-(5-methoxy-3,9-dihydrochromeno[2,3-d]imidazol-2-yl)phenol], the “Selectivity Index (vs HK2) A498 Resistant” value in experiment [2] came out at 12.32. For the same compound, the values for the IC50 (in experiment [2]; with TNBC cell line Hs578t; in experiment [1]) were 0.77 µM, 990 nM and 0.335 µM, respectively. In experiment [1], the “Selectivity Index (vs HK2) Caki-2 Resistant” value was found to be 29.6.

Take `COc1cccc2c1Oc1nc(-c3ccc(Br)cc3)[nH]c1C2C1c2cccc(OC)c2Oc2nc(-c3ccc(Br)cc3)[nH]c21` (stereo not drawn) [MC421, 2,2′-bis(4-bromophenyl)-5,5′-dimethoxy-1,1,9,9′-tetrahydro-9,9′-bichromeno[2,3-]imidazoles]: in experiment [2], the “Selectivity Index (vs HK2) A498 Resistant” value was 14.56 and the IC50 was 0.16 µM. In addition, the IC50 with TNBC cell line Hs578t was found to be 35 nM. In experiment [1], the “Selectivity Index (vs HK2) Caki-2 Resistant” value is given as 123.50 and the IC50 stood at 0.02 µM.

For `COc1cccc2c1Oc1nc(-c3ccc(Br)cc3)[nH]c1C2` [MC408, 2-(4-bromophenyl)-5-methoxy-3,9-dihydrochromeno[2,3-d]imidazoles], in experiment [2], the “Selectivity Index (vs HK2) A498 Resistant” value is given as 2.26 and the IC50 was 1.07 µM. Further, the IC50 in the experiment with TNBC cell line Hs578t was 47 nM. For the same compound, in experiment [1], the “Selectivity Index (vs HK2) Caki-2 Resistant” value is 123.79 and the IC50 was 0.028 µM.

For the compound `COc1cccc2c1Oc1nc(-c3ccccc3)[nH]c1C2` [MC350, 5-methoxy-2-phenyl-3,9-dihydrochromeno[2,3-d]imidazoles], in experiment [2], the “Selectivity Index (vs HK2) A498 Resistant” value is 12.27 and half-maximal inhibition (IC50) was put at 1.62 µM. In experiment [1], the “Selectivity Index (vs HK2) Caki-2 Resistant” value is given as 32.28 and the IC50 was found to be 0.646 µM.

What is called IC50 is the concentration that gives 50% inhibition. High values mean lower potency, low ones higher potency.
